Experimental data reported in patent US10596153B2, “Antimicrobial agents and the method of synthesizing the antimicrobial agents” (Arkansas State University—Jonesboro, priority 2016, dated 2020).
Where two headings read alike, the source gives them in different places.

Key:
Assay in all cases: Disk diffusion assay, zone of inhibition
Format in all cases: cell-based
[1] = test system: Enterobacter aerogenes ATCC 13048; conditions: N-arylamine derivatives; 10 μL of 0.1 M in DMSO on 6 mm disk; 20-24 hours at 35° C.; NA=No activity
Description: (§1) Bacteria were streaked onto Tryptic Soy Agar plates and incubated overnight at 35° C. Bacteria were suspended in sterile saline to the turbidity of a 0.5 McFarland standard then swabbed onto Mueller Hinton Agar plates to create lawns. Test compounds were dissolved in DMSO at a concentration of 0.1 M, and 10 μL of each were pipetted onto 6 mm diameter glass fiber disks placed on the lawns. Plates were incubated for 20-24 hours at 35° C. after which zones of inhibition (diameters in mm) were measured for each test compound.

[2] = test system: Pseudomonas aeruginosa ATCC 27853; conditions: N-arylamine derivatives; 10 μL of 0.1 M in DMSO on 6 mm disk; 20-24 hours at 35° C.; NA=No activity
Description: as §1

[3] = test system: Staphylococcus aureus ATCC 25923
Description: as §1

[4] = test system: Bacillus subtilis ATCC 6633
Description: as §1

[5] = ATCC25923, read-out: Zone of inhibition in mm, S a
[6] = ATCC6633, read-out: Zone of inhibition in mm, B s, N-arylamine derivatives, 10 μL of 0.1 M in DMSO on 6 mm disk, 20-24 hours at 35° C., NA=No activity
[7] = ATCC6633, read-out: Zone of inhibition in mm, B s, azomethines, 10 μL of 0.1 M in DMSO on 6 mm disk, 20-24 hours at 35° C., NA=No activity
[8] = ATCC25923, N-arylamine derivatives, 10 μL of 0.1 M in DMSO on 6 mm disk, 20-24 hours at 35° C., NA=No activity, read-out: Zone of inhibition in mm, S a
[9] = ATCC6633, N-arylamine derivatives, 10 μL of 0.1 M in DMSO on 6 mm disk, 20-24 hours at 35° C., NA=No activity, read-out: Zone of inhibition in mm, B s
[10] = ATCC6633, azomethines, 10 μL of 0.1 M in DMSO on 6 mm disk, 20-24 hours at 35° C., NA=No activity, read-out: Zone of inhibition in mm, B s

Compound | zone of inhibition at 100000 µM [3, 5] | zone of inhibition at 100000 µM [4, 6] | zone of inhibition at 100000 µM [4, 7] | zone of inhibition at 100000 µM [3, 8] | zone of inhibition at 100000 µM [4, 9] | zone of inhibition at 100000 µM [4, 10] | other results
O=C(N[C@H](CO)[C@H](O)c1ccc([N+](=O)[O-])cc1)C(Cl)Cl [Chloramphenicol] | – | – | – | – | – | – | Zone of inhibition in mm, E a [1]: 28 mm; Zone of inhibition in mm, P a [2]: 8 mm
Cc1ccc(C)cc1 [e] | 17 mm | 18 mm | 8 mm | – | – | – | –
Cc1ccc(Cl)cc1 [c] | – | – | – | 18 mm | 18 mm | 9 mm | –
Cc1ccc(F)cc1 [b] | 18 mm | 18 mm | 8 mm | – | – | – | –
Cc1ccc(Oc2ccccc2)cc1 [h] | – | – | – | 11 mm | 12 mm | – | –
Cc1ccc(Br)cc1 [d] | – | – | – | 9 mm | 8 mm | 8 mm | –
Cc1ccc(C(C)(C)C)cc1 [f] | – | – | – | 8 mm | 14 mm | 8 mm | –
COc1ccc(C)cc1 [g] | 15 mm | 14 mm | 10 mm | – | – | – | –
Cc1ccccc1 [a] | 20 mm | – | 8 mm | – | – | – | –
